# Measurements from US8957082B2, “Tetrahydropyrrolopyrimidinediones and their use in therapy” (Chiesi Farmaceutici S.p.A, priority 2006, dated 2015).
# Target: T1, human neutrophil elastase (HNE) (Homo sapiens, UniProt P08246)
# T1 sequence (P08246 30-267): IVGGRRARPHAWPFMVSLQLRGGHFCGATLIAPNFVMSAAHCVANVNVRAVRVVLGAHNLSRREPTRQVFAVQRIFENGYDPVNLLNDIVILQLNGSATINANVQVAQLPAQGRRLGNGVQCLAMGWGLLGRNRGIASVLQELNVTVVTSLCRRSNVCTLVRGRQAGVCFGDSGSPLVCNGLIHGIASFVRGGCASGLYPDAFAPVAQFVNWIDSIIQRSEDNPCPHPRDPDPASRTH
# Assay: HNE induced lung haemorrhage in the rat
# Assay type: in vivo
# Details: male Sprague Dawley rats, compound dosed locally to the lung (i.t. or i.n.) before HNE, blood in BALF one hour post HNE challenge
# From the text: HNE Induced Lung Haemorrhage in the Rat
# Instillation of human neutrophil elastase (HNE) into rat lung causes acute lung damage. The extent of this injury can be assessed by measuring lung haemorrhage. Male Sprague Dawley rats (175-220 g) were obtained from Harlan UK Ltd., full barrier-bred and certified free from specified micro-organisms on receipt. Animals were weighed and randomly assigned to treatment groups (7-12 animals per group).
# The vehicle used was 1% DMSO/Saline. Inhibitors were dissolved in 1% DMSO before the addition of 0.9% saline.
# Animals in each study used to determine the efficacy of the elastase inhibitors delivered locally to the lung by a variety of routes. Rats were anaesthetised with the inhaled anaesthetic isoflurane (4%) when the dose was given from 30 minutes to 6 h prior to human neutrophil elastase ([…]) administration or terminally anaesthetised with hypnorm:hypnovel:water (1.5:1:2 at 2.7 ml/kg) when the predose was given at less than 30 minutes prior to HNE administration and dosed either intratracheally (i.t.) by transoral administration using a Penn Century microsprayer or intranasally (i.n.) by dropping the fluid on to the nares. Animals either received vehicle or compound at a dose volume of 0.5 ml/kg.
# Animals that had been allowed to recover after dosing were terminally anaesthetised with hypnorm:hypnovel:water (1.5:1:2 at 2.7 ml/kg). Once sufficiently anaesthetised, HNE (600 units/ml) or sterile saline was administered by transoral tracheal instillation at a volume of 100 μl using a Penn Century microsprayer. Animals were kept warm in a temperature controlled box and given top up doses of anaesthetic as required to ensure continuous anaesthesia until termination.
# Animals were sacrificed (0.5 ml to 1 ml sodium pentobarbitone) one hour post HNE challenge. The trachea was exposed and a small incision made between two tracheal rings allowing a cannula (10 gauge, O.D. 2-10 mm, Portex Ltd.) to be inserted approximately 2 cm into the trachea towards the lung. This was secured into place with a cotton ligature. The lungs were then lavaged (BAL) three times with fresh 4 ml aliquots of heparinised (10 units/ml) phosphate buffered saline (PBS). The resultant BALF was kept on ice until it was centrifuged.
# The BALF was centrifuged at 1000 r.p.m. for 10 minutes in a centrifuge cooled to between 4 and 10° C. The supernatant was discarded and the cell pellet resuspended in 1 ml 0.1% CETAB/PBS to lyse the cells. Cell lysates were frozen until spectrophotometric analysis for blood content could be made. Standards were prepared by making solutions of whole rat blood in 0.1% CETAB/PBS.
# Once defrosted 100 μl of each lysed cell suspension was placed into a separate well of a 96 well flat bottomed plate. All samples were tested in duplicate and 100 μl 0.1% CETAB/PBS was included on the plate as a blank. The OD of the contents of each well was measured at 415 nm using a spectramax 250 (Molecular devices).
# A standard curve was constructed by measuring the OD (at 415 nm) of different concentrations of blood in 0.1% CETAB/PBS (30, 10, 7, 3, 1, 0.3, 0.1 μl/ml).
# The amount of blood in each experimental sample was calculated by comparison to the standard curve. Data were then analysed as below:
# 1) The mean OD for duplicates was calculated
# 2) The value for the blank was subtracted from the value for all other samples
# 3) Data were assessed to evaluate the normality of distribution.
row,Structure (SMILES),reducing the quantity of blood haemorrhaged relative to control
1,C[N+](CCCN1CC2=C(C1=O)[C@@H](c1ccc(C#N)cc1)NC(=O)N2c1cccc(C(F)(F)F)c1)(CCCN1CC2=C(C1=O)[C@@H](c1ccc(C#N)cc1)NC(=O)N2c1cccc(C(F)(F)F)c1)CC(=O)[O-] [Example 49],effective in reducing the quantity of blood haemorrhaged
2,N#Cc1ccc([C@H]2NC(=O)N(c3cccc(C(F)(F)F)c3)C3=C2C(=O)N(CCCNCCCN2CC4=C(C2=O)[C@@H](c2ccc(C#N)cc2)NC(=O)N4c2cccc(C(F)(F)F)c2)C3)cc1.O=CO [Example 18],effective in reducing the quantity of blood haemorrhaged
3,C[N+](C)(CCCN1CC2=C(C1=O)[C@@H](c1ccc(C#N)cc1)N(CC(=O)O)C(=O)N2c1cccc(C(F)(F)F)c1)CCCN1CC2=C(C1=O)[C@@H](c1ccc(C#N)cc1)N(CC(=O)O)C(=O)N2c1cccc(C(F)(F)F)c1.O=C([O-])C(F)(F)F [Example 41],effective in reducing the quantity of blood haemorrhaged
4,C[N+](CCCCN1CC2=C(C1=O)[C@@H](c1ccc(C#N)cc1)NC(=O)N2c1cccc(C(F)(F)F)c1)(CCCOc1ccccc1)CCCOc1ccccc1.O=C[O-] [Example 64],effective in reducing the quantity of blood haemorrhaged
5,C[N+](C)(CCCN1CC2=C(C1=O)[C@@H](c1ccc(C#N)cc1)NC(=O)N2c1cccc(C(F)(F)F)c1)CCCN1CC2=C(C1=O)[C@@H](c1ccc(C#N)cc1)NC(=O)N2c1cccc(C(F)(F)F)c1.[I-] [Example 32],effective in reducing the quantity of blood haemorrhaged
6,C[N+](C)(CCCN1CC2=C(C1=O)[C@@H](c1ccc(C#N)cc1)NC(=O)N2c1cccc(C(F)(F)F)c1)CCCN1CC2=C(C1=O)[C@@H](c1ccc(C#N)cc1)NC(=O)N2c1cccc(C(F)(F)F)c1.O=C[O-] [Example 59],effective in reducing the quantity of blood haemorrhaged
7,N#Cc1ccc([C@H]2NC(=O)N(c3cccc(C(F)(F)F)c3)C3=C2C(=O)N(CCN2CCN(CCN4CC5=C(C4=O)[C@@H](c4ccc(C#N)cc4)NC(=O)N5c4cccc(C(F)(F)F)c4)C2=N)C3)cc1 [Example 43],effective in reducing the quantity of blood haemorrhaged
8,CN(CCCN1CC2=C(C1=O)[C@@H](c1ccc(C#N)cc1)NC(=O)N2c1cccc(C(F)(F)F)c1)CCCN1CC2=C(C1=O)[C@@H](c1ccc(C#N)cc1)NC(=O)N2c1cccc(C(F)(F)F)c1 [Example 17],effective in reducing the quantity of blood haemorrhaged
9,C[N+](C)(CCCCN1CC2=C(C1=O)[C@@H](c1ccc(C#N)cc1)NC(=O)N2c1cccc(C(F)(F)F)c1)CCCOc1ccccc1.[Br-] [Example 61],effective in reducing the quantity of blood haemorrhaged
10,CCN1CC2=C(C1=O)[C@@H](c1ccc(C#N)cc1)N(CC(=O)NCCNC(=N)NCCNC(=O)CN1C(=O)N(c3cccc(C(F)(F)F)c3)C3=C(C(=O)N(CC)C3)[C@H]1c1ccc(C#N)cc1)C(=O)N2c1cccc(C(F)(F)F)c1 [Example 30],effective in reducing the quantity of blood haemorrhaged

# Same assay, conditions: rat, 30 mg/kg it, 1 hour prior to HNE; statistically significant
row,Structure (SMILES),reduction in haemorrhage relative to control
1,C[N+](C)(CCCN1CC2=C(C1=O)[C@@H](c1ccc(C#N)cc1)NC(=O)N2c1cccc(C(F)(F)F)c1)CCCN1CC2=C(C1=O)[C@@H](c1ccc(C#N)cc1)NC(=O)N2c1cccc(C(F)(F)F)c1.[I-] [Example 32],67%

# Target: T2, human leukocyte elastase (HNE) (Homo sapiens, UniProt P08246)
# T2 construct: purchased Sigma E8140
# T2 sequence (P08246 30-247 limits assumed): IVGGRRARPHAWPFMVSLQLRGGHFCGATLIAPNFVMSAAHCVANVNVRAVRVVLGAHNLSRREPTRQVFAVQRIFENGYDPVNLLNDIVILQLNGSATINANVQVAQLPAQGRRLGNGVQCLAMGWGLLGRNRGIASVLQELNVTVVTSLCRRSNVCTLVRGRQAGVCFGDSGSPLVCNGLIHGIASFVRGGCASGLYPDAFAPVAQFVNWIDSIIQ
# Assay: HNE inhibitory activity (fluorescent peptide substrate / fluorescently labelled elastin assays)
# Assay type: biochemical
# Details: which of the two substrate assays is not stated
# Experimental: Compounds of the invention were tested for their HNE inhibitory activity.
# Fluorescent Peptide Substrate
# Assays were performed in 96-well plates at a total assay volume of 100 μl. The final concentration of the enzyme (human leukocyte elastase, Sigma E8140) was 0.00036 units/well. A peptide substrate (MeO-Suc-Ala-Ala-Pro-ValAMC, Calbiochem #324745) was used, at the final concentration of 100 μM. The final concentration of DMSO was 1% in the assay buffer (0.05M Tris.HCl, pH 7.5, 0.1M NaCl; 0.1M CaCl2; 0.0005% brij-35).
# The enzymatic reaction was started by adding the enzyme. The enzymatic reaction was performed at RT and after 30 mins stopped by adding 50 μl soybean trypsin inhibitor (Sigma T-9003) at a final concentration of 50 μg/well. Fluorescence was read on the FLEXstation (Molecular Devices) using 380 nm excitation and 460 nm emission filters. […] The results are means of two independent experiments, each performed in duplicate.
# Using Fluorescently Labelled Elastin
# Assays were performed in 96-well plate at a total assay volume of 100 μl. The final concentration of the enzyme (human leukocyte elastase, Sigma E8140) was 0.002 units/well. […]
# The enzymatic reaction was started by adding the enzyme. The enzymatic reaction was performed at RT and read after 120 minutes. Fluorescence was read on the FLEXstation (Molecular Devices) using 485 nm excitation and 530 nm emission filters. […]
row,IC50,Structure (SMILES)
1,50 to 500 nM,CN(CCCN1CC2=C(C1=O)[C@@H](c1ccc(I)cc1)NC(=O)N2c1cccc(C(F)(F)F)c1)CCCN1CC2=C(C1=O)[C@@H](c1ccc(I)cc1)NC(=O)N2c1cccc(C(F)(F)F)c1 [Example 23]
